For assay [1], the system named is CYFIP1-overexpressing hippocampal neurons. The assay is described as follows: Excessive dendritic arborization in CYFIP1-overexpressing primary hippocampal neurons. The format is cell-based, rat. From the text: Neural stem cells were primarily cultured from the hippocampal vestigial region of white mouse E16 embryos, and CYFIP1, which was found as a gene causing autism spectrum disorder, was introduced by transfection and overexpressed. When the neural stem cells in which CYFIP1 was overexpressed were differentiated, the neurite length and branch number increased compared to the normal cell, the number of dendritic spine increased, and morphological changes such as an increase in rod-shaped dendritic spines with a size of 0.6 μm or more, which are larger than the normal size, were accompanied. Therefore, CYFIP1 overexpression was used as a culture cell model of autism.
By treating norathyriol to the differentiating neural stem cells exogenously overexpressing CYFIP1, the effect of norathyriol on excessive dendritic arborization generated by CYFIP1 overexpression was investigated. By immunofluorescent staining method using an antibody against pan-neurofilament and an antibody against PSD (post-synaptic density)-95, which was expressed in the post-synaptic dendrite of synapses, the neurite length and dendritic spine number were measured and quantified. In addition, by DAPI staining, the nuclei of the neural cells were visualized.
Hippocampus-derived neural progenitor cells were isolated from the forebrain of E16 mouse embryos. SD-rat gestational age 16-day mice (Orient Bio) were purchased and the mice were anesthetized with CO2 deeply, and then the embryos were taken out. The embryos were immersed in Ca^2+/Mg^2+-free HBSS (Invitrogen) and the forebrain was isolated using a sterile injection needle under a dissecting microscope. While changing HBSS, the forebrain was separated into the left and right hemispheres using a forcep, and meninges were peeled off, and then the hippocampal eminence was separated. After washing the separated and collected tissue with cold N2 culture medium twice, 37° C. N2 culture medium was added and cells were slowly and mechanically isolated using a pipette. As the pipette, a Pasteur pipette coated with 1% BSA was used after making the pipette narrow and soft in diameter by firing the tip. After waiting for 3 minutes to allow undissolved tissue or vascular cells to settle, the supernatant was carefully taken as dissolved cells. These tissues were collected and mechanically isolated with the pipette in Ca^2+/Mg^2+-free HBSS (Invitrogen) buffer. The cells were seeded at 19,000 cells/cm^2 in a 35 mm culture dish coated with 15 μg/ml poly-L-ornithine and 1 μg/ml fibronectin (Sigma), and cultured using a serum-free N2 medium (medium for proliferation) in which 10 ng/mL bFGF (Invitrogen) was added under a condition of 5% CO2. […]

The target of the next assay is mTORC2 (Homo sapiens, UniProt P42345). The assay is described as follows: In vitro mTORC2 kinase assay (GST-Akt Ser473 phosphorylation, immunoblot). The assay is classed as biochemical. On the set-up: mTORC was isolated by co-immunoprecipitation using Flag antibody; made in house; host or cells: HEK 293T transfected with Flag-mLST8. The conditions noted are these: for reduction of GST-Akt Ser473 phosphorylation by mTORC2: FIG. 6a. The protocol: After introducing Flag-mLST8 into a human cell line 293T, mTORC was isolated by co-immunoprecipitation using Flag antibody. In the in vitro mTORC2 kinase assay, the activity of the isolated mTORC2 was evaluated by measuring phosphorylation of GST-Akt Ser473, which is a selective substrate of mTORC2 by immunoblot analysis. In the control group in which Flag-mLST8 was not introduced, GST-Akt Ser473 phosphorylation was almost not measured. […] Therefore, it was judged that GST-Akt Ser473 phosphorylation measured in the in vitro mTORC2 kinase assay was generated by mTORC2. In order to evaluate the inhibitory effect of norathyriol and athyriol on mTORC2 activity, norathyriol or athyriol was pretreated for 15 minutes, and then in vitro mTORC2 kinase assay was carried out.
More specifically, the HEK 293T cells were cultured in a DMEM culture medium in which 10% heat inactivated FBS+1× Glutamax was added. 8×10^5 HEK 293T cells were seeded in a 100 mm culture dish, and then they were cultured for 1 day. After mixing 42 μl Lipofectamine, 21 μl plus reagent, and 21 μg Flag-mLST8 plasmid DNA to 1 ml OPTI-MEM, it was shaken at a room temperature for 25 minutes to prepare a transfection DNA mixture. The transfection DNA mixture was slowly treated on the cells drop by drop, and after culturing for 5 hours, the culture medium was replaced with a new culture medium. After additional culturing for 48 hours, the cells were […] with CHAPS buffer (50 mM HEPES (pH7.4), 100 mM NaCl, 2 mM EDTA, 0.3% CHAPS, 10 mM sodium pyrophosphate, 10 mM sodium β-glycerophosphate, 1 mM PMSF, 1 μg/ml leupeptin, 1 μg/ml pepstatin A, 10 nM aprotinin, 1 mM Na3VO4, 10 nM calyculin A), and centrifuged at 4° C. at 13,000 rpm for 10 minutes to obtain the supernatant and acquire cell lysate. The protein concentration of the cell lysate was determined with BCA protein assay kit (Thermo Fisher Scientific). After adding anti-Flag M2 affinity gel (50% slurry, Sigma) of 30 μl to the cell lysate of 1 mg, it was shaken at 4° C. for 3 hours. After that, affinity gel was washed with CHAPS buffer 3 times and kinase buffer (50 mM HEPES (pH7.5), 2 mM DTT, 10 mM MnCl2, 10 mM MgCl2) for washing once. After adding kinase buffer [-substrate-ATP] […] After that, kinase buffer (50 mM HEPES (pH7.5), 2 mM DTT, 10 mM MgCl2, 10 mM MnCl2, 1 mM ATP, 500 ng GST-AKT, 10 nM calyculin A) of 10 μl was added and shaken at 30° C. for 45 minutes to progress a kinase reaction. […] Ser473 phosphorylation of GST-AKT, which is a substrate of mTORC2, was measured by performing immunoblot analysis using AKT antibody (#4691, Cell signaling) and phospho Ser473 AKT antibody (#4060, Cell signalig). In order to measure the mTORC2 activity inhibitory effect by the compound, both the kinase buffer [-substrate-ATP] and the kinase buffer included the compound.

As to `O=c1c2cc(O)c(O)cc2oc2cc(O)cc(O)c12` [norathyriol, 1,3,6,7-tetrahydroxy-9H-xanthen-9-one], the “reduction of number of dendritic spines per unit neurite length” value in assay [1] (50 nM and 100 nM, on average, FIG. 10b) was ≤ 50%. In addition, in assay [1] (FIG. 10b), the “number of dendritic spines in primary branching neurites” value is recorded as “reduced by norathyriol in a similar tendency” and the “number of dendritic spines per cell” value was “reduced by norathyriol in a similar tendency”. Moreover, the “number of dendritic spines per unit neurite length” value in assay [1] (from 10 nM, FIG. 10) was “decrease in the number of dendritic spines was observed”. Besides, at mTORC2 (5 μM), the “reduction of GST-Akt Ser473 phosphorylation by mTORC2” value is ≥ 20%. Also, at mTORC2 (40 μM), the “reduction of GST-Akt Ser473 phosphorylation by mTORC2” value came to 50%. The compound further had an inhibition at 40 µM on mTORC2 (40 μM, FIG. 6b) of 46%. At mTORC2 (in vitro mTORC2 kinase assay), this compound had a concentration for half-maximal inhibition (IC50) of 40 µM.

As to `COc1cc(O)c2c(=O)c3cc(O)c(O)cc3oc2c1` [athyriol, 1,6,7-Trihydroxy-3-methoxy-9H-xanthen-9-on], the inhibition at 20 µM at mTORC2 (20 μM, FIG. 6b) was 59%. The compound further displayed an inhibition at 40 µM against mTORC2 (40 μM, FIG. 6b) of 67%.

What is called inhibition is the percentage by which the read-out fell short of the control. In general, IC50 refers to the concentration needed to halve the response being measured. A higher IC50 goes with lower potency.
